Values of other authors, collected in US20240207240A1, “Method for Improving or Treating Cognitive Dysfunction Complicating HIV-associated Cryptococcal Meningitis with Lenalidomide” (The First Affiliated Hospital Zhejiang University School of …, priority 2022, published 2024).

Experiments:
[1] = cited from earlier work
[2] = in vivo; cited from earlier work

Structure (SMILES) | bioavailability [1] | side effects [2]
Nc1cccc2c1C(=O)N(C1CCC(=O)NC1=O)C2=O (stereo not drawn) [pomalidomide] | high | 
O=C1CCC(N2C(=O)c3ccccc3C2=O)C(=O)N1 (stereo not drawn) [thalidomide] | high | bone marrow suppression, cardiotoxicity, vascular thrombosis, and neurotoxicity
